# B1: IL-6: murine IL-6 purchased from PharMingen (protein, UniProt P08505 25-211, looked up)
# Interleukin-6: FPTSQVRRGDFTEDTTPNRPVYTTSQVGGLITHVLWEIVEMRKELCNGNSDCMNNDDALAENNLKLPEIQRNDGCYQTGYNQEICLLKISSGLLEYHSYLEYMKNNLKDNKKDKARVLQRDTETLIHIFNQEVKDLHKIVLPTPISNALLTDKLESQKEWLRTKTIQFILKSLEEFLKVTLRSTRQT
# Tests used:
# [1] = tested on: WEHI 231 cells; experiment: Inhibition of CpG-ODN 1760 protection against α-sIgM-induced inhibition of [3H] thymidine uptake; format: cell-based, mouse; details: for Fold: activity expressed as a fraction of activity of chloroquine / Activity: -log10 of the concentration (M) required for half maximal inhibition of CpG-ODN effect on [3H] thymidine uptake in the presence of α-sIgM: Table 2, 4-aminoquinolines
# Protocol: The assay of [^3H] Thymidine incorporation was carried out as follows. WEHI 231 cells (200 μL at 2×10^5/milliliter, in duplicate or triplicate) were incubated in a 96-well plate (Costar, Cambridge Mass.). Additions were made as indicated. After incubating for 16 hours, 0.5 μCi [methyl-^3H] thymidine (2 Ci/millimole, DuPont NEN, Boston Mass.) was added to each well, and the cells were incubated for another 4 hours. Cellular DNA was then captured onto glass fiber filters (Whatman 934AH) using a cell harvester (Brandel, Gaithersberg Md.). The filters were dried, placed into plastic scintillation vials with 10 milliliters of scintillation cocktail (EconoSafe, Research Products International, Mount Prospect Ill.), and counted in a liquid scintillation counter (Beckman LS-3133 T). The ^3H recovered on the filter was expressed as a fraction of the ^3H added.
# Referring to experiments summarized in FIG. 1, WEHI 231 cells (ca. 2×10^5 per milliliter) were incubated for 16 hours at 37° C. with 10 μgrams/milliliter α-sIgM, 6 μgrams/milliliter ODN 1760, and the indicated concentration of the compound. After 16 hours, 0.5 μCi [^3H] thymidine was added. After 4 more hours incubation, the cellular DNA was harvested onto glass fiber filters. The dry filters were counted in a liquid scintillation counter.
# Each experimental point was the mean of at least duplicate measurements.
# Referring to the experiments summarized in FIG. 3, 10 μgrams/milliliter α-sIgM and the indicated concentrations of ODN 1760 and quinacrine were added simultaneously to WEHI 231 cells. Thymidine incorporation was estimated at 16 hours as described for Example 1.
# Referring to the experiments summarized in FIG. 4, WEHI 231 cells were incubated with α-sIgM and ODN 1760. At times thereafter 0.1 μM quinacrine was added (data shown in the left three bars). Cells were incubated with 10 μgrams/milliliter (α-sIgM and ODN 1760 (6 μgrams/milliliter, phosphorothioate or a phosphodiester ODN with the same sequence as 1760 (PD ODN) (30 μM at time 0 hours and 8 hours; data represented in right six bars in FIG. 4). [^3H] thymidine incorporation was estimated at 16 hours.
# The symbol — indicates no change. Me and Et indicate —CH3 and —CH2CH3 respectively. Aromatic substituents are in the para position except as indicated. The activity is —log10 of the concentration (M) required for half maximal inhibition of CpG-ODN effect on [^3H] thymidine uptake in the presence of α-sIgM.
# [2] = tested on: WEHI 231 cells; experiment: CpG-ODN-induced IL-6 synthesis (ELISA); format: cell-based, mouse; details: 30 nM
# Protocol: The assay of IL6 was generally carried out as follows. […] After 24 hours, the IL-6 content of the supernatant was assayed by enzyme-linked immunoassay using two monoclonal antibodies in a sandwich technique as described by the manufacturer, using standards supplied (PharMingen, San Diego Calif.).
# [3] = tested on: 7TD1 cells; experiment: Inhibition of 7TD1 cell growth; format: cell-based, mouse
# Protocol: One particularly useful cell line for the assay of immunostimulatory DNA action is the mouse-mouse hybridoma plasma cell line 7TD1(ATTC #CRL 1851), which requires exoqenous IL-6 for growth, and has been used to characterize and assay IL-6 (Papadopolous et al., 1995. J. Clin. Lab. Anal. 9:234-7; Krakauer, 1993. J. Immunoassay 14:267-77).
# The 7TD1 cells were grown in RPMI 1640 supplemented with 10% fetal bovine serum (heat inactivated at 65° C., 1 hour), 0.3 grams/Liter L-glutamine, 50 milligrams/Liter gentamycin, 0.05 mM 2-mercaptoethanol, and 10 units per milliliter murine IL-6 in a 37° C. humid atmosphere with 5% CO2. Viable 7TD1 cells were counted in a hemocytometer chamber in duplicate after dilution with 0.4% trypan blue.
# The 7TD1 cells were incubated for five days and were washed twice with medium to remove IL-6, and resuspended at 2×10^4 per milliliter in medium. Cell counts were performed and the percent inhibition of growth was computed. The term “anti” refers to 40 nanograms/milliliter neutralizing antibody to IL-6.
# [4] = tested on: human mononuclear cells; experiment: ODN 1760-induced [3H] thymidine incorporation in human mononuclear cells; format: cell-based; details: unfractionated human peripheral blood cells, four days
# Protocol: [^3H] thymidine incorporation (18 hour pulse) was then measured. […] Thymidine incorporation for untreated samples was less than 0.05%. Samples from three donors were averaged, and error bars indicate 1 standard deviation.
# [5] = tested on: human peripheral blood mononuclear cells (PBMC); experiment: ODN 1760-induced IL-6 production in human peripheral blood mononuclear cells; format: cell-based; details: 24 hours
# Protocol: Referring to the experiments summarized in FIG. 9, human peripheral blood mononuclear cells (PBMC) from three donors were incubated with or without ODN 1760 and the indicated concentration of test compound. After 24 hours, the concentration of IL-6 was determined in the supernatant. The figure indicates the percentage of IL-6 in reference to ODN-treated cells. The IL-6 amounts for control sample per donor were as follows: donor 1, 203 picograms/milliliter; donor 2, 71.5 picograms/milliliter; donor 3, 465 picograms/milliliter. IL-6 measured from untreated cells was 0-21 picograms/milliliter. Results from the three donors were averaged, and error bars indicate 1 standard deviation.
# [6] = tested on: multi-drug resistance pump; experiment: Potency with inhibition of the multi-drug resistance pump; format: cell-based
# [7] = 6 μg/mL ODN 1760 + 1 μg chloroquine (so in the source)
# [8] = 6 μg/mL ODN 1760 + 3μ chloroquine (so in the source)
Molecule,Fold: activity expressed as a fraction of activity of chloroquine [1] [fold],Activity: -log10 of the concentration (M) required for half maximal inhibition of CpG-ODN effect on [3H] thymidine uptake in the presence of α-sIgM ([1]; WEHI 231 cells),further results
CCN(CC)CCCC(C)Nc1ccnc2cc(Cl)ccc12 (stereo not drawn) [chloroquine],–,–,"Inhibition of the CpG-ODN effect (FIG. 1) ([1]; at nanomolar concentrations, 10 μg/mL α-sIgM, 6 μg/mL ODN 1760): completely inhibited; Reversal of ODN 1760 effect on IL-6 elaboration [2]: completely reversed; 7TD1 cells/μL [3, 7]: 7 cells/μL; % Growth Inhibition [3, 7]: 98.1%; 7TD1 cells/μL [3, 8]: 10 cells/μL; % Growth Inhibition [3, 8]: 97.5%; 7TD1 cells/μL ([3]; 10 μg/mL IL-6 + 1 μM compound): 610 cells/μL; % Growth Inhibition ([3]; 10 μg/mL IL-6 + 1 μM compound): 31.2%; % Growth Inhibition ([3]; 10 μg/mL IL-6 + 3 μM compound): 38.3%; Effect on IL-6-induced growth ([3]; 7TD1 cells, IL-6): little effect; Effect on growth stimulation by CpG-ODN ([3]; 7TD1 cells, ODN 1760): blocked; Effect on ODN 1760-induced thymidine incorporation (FIG. 8) [4]: inhibited; Effect on ODN 1760-induced IL-6 production (FIG. 9) [5]: inhibited; Change of potency on inhibition of the multi-drug resistance pump [6]: magnified"
CCN(CC)CCCC(CNc1ccnc2cc(Cl)ccc12)c1ccc(Cl)cc1 (stereo not drawn) [compound 33],2.95,7.43,–
CC[N+](C)(CC)CCCC(C)Nc1ccnc2cc(Cl)ccc12 (stereo not drawn) [compound 8],0.02,5.18,–
CCN(CC)CCCC(C)Nc1cc(-c2ccccc2)nc2cc(Cl)ccc12 (stereo not drawn) [compound 48],2.14,7.29,–
CCN(CC)CCCC(C)Nc1ccnc2ccc(Oc3ccccc3)cc12 (stereo not drawn) [compound 42],1.48,7.13,–
CCN(CC)CCCC(Nc1c2ccc(Cl)cc2nc2ccc(OC)cc12)c1ccccc1 (stereo not drawn) [compound 25],–,–,"vs. Chloroquine, fold ([1]; Table 3, 9-aminoacridines): 5.75 fold; Activity,-log10 (concentration (M) for half maximal inhibition of CpG-ODN effect on [3H] thymidine uptake in the presence of α-sIgM) ([1]; Table 3, 9-aminoacridines, WEHI 231 cells): 7.72"
CCN(CC)CCCC(C)Nc1ccnc2cc(Cl)ccc12 (stereo not drawn) [compound 15],–,6.96,–
CCN(CC)CCCC(C)Nc1c(C)cnc2cc(Cl)ccc12 (stereo not drawn) [compound 1],0.55,6.70,–
CCN(CC)CCC(CNc1c(C)cnc2cc(Cl)ccc12)c1ccc(Cl)c(Cl)c1 (stereo not drawn) [compound 65],0.58,6.72,–
"C=C[C@H]1C[N@@]2CC[C@H]1C[C@H]2[C@H](O)c1ccnc2ccc(OC)cc12 [quinine, reference compound]",–,–,Effect on CpG-ODN action (FIG. 1) ([1]; at concentrations less than 10 μM): little effect
CCN(CC)CCCC(CCl)Nc1ccnc2cc(Cl)ccc12 (stereo not drawn) [compound 56],1.45,7.12,–
CCN(CC)CCCC(C)Nc1ccnc2ccc(-c3ccccc3)cc12 (stereo not drawn) [compound 51],1.62,7.17,–
CCN(CC)CCCC(C)Nc1c(C)cnc2cccc(C)c12 (stereo not drawn) [compound 40],0.23,6.32,–
CCN(CC)CCC(CNc1ccnc2cc(Cl)ccc12)c1ccc(OC)cc1 (stereo not drawn) [compound 61],0.79,6.86,–
B1,–,–,"7TD1 cells/μL ([3]; 10 μg/mL IL-6 alone, five days): 887 cells/μL"

# — US7354711B2, “Methods for inhibiting immunostimulatory DNA associated responses” (University of Iowa Research Foundation, priority 1997, dated 2008)
